# According to ChEMBL document CHEMBL1201862, “PubChem BioAssay data set” (2004):
# The source made the active and inactive calls. Rule as the data show it, for most assays here: actives have a measured EC50 and inactives only a lower limit.
# Tests used:
# [1] = molecular target: Luciferin 4-monooxygenase (Photinus pyralis, UniProt P08659); assay: inhibition of purified Photinus pyralis luciferase – biochemical, luminescence, dose response (AID 1891)
# [2] = molecular target: T1, RNA-binding protein pos-1 (Caenorhabditis elegans, UniProt G5EF15); assay: disruptors of C. elegans POS-1 RNA interaction – biochemical, fluorescence polarization, dose response (AID 1964);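 also: purified POS-1 fused to maltose binding protein made in E. coli; potency of compounds blocking POS-1 binding to fluorescent RNA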
# T1 sequence (G5EF15 whole entry): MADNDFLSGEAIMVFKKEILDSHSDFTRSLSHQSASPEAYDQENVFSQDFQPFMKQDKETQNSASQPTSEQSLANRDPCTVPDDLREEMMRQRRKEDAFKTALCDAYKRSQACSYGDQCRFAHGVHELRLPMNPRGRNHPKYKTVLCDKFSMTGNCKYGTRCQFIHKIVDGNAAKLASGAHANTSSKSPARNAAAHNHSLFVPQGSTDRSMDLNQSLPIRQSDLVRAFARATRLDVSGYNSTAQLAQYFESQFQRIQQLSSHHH
# [3] = Luminescence Cell-Based Dose Confirmation HTS to Identify Inhibitors of Platelet Dense Granule Release. [Related pubchem assays: 1663 (Primary HTS), 1678 (Summary of Project)]; type: functional
# H9c2 = assay: cells; type: functional, cell-based; conditions: Rattus norvegicus, H9c2, Myocardium;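 also: confirmatory concentration-response retest of ultra-high-throughput screening hits for modulation of myocardial damage; cell death induced by hydrogen peroxide oxidative stress; compound pretreatment for 60 min then peroxide exposure for 2 h; potency is for protecting the cells against peroxide damage rather than for killing them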
# [4] = Luminescence Cell-Based Dose Confirmation HTS to Identify Activators of 5'UTR Stem-Loop Driven Alpha-Synuclein mRNA Translation in H4 Neuroglioblastoma Cells. [Related pubchem assays: 1829 (Project Summary), 1814 (Primary HTS)]; type: functional
# [5] = Luminescence Cell-Based Dose Response HTS to Identify Activators of Luciferase Translation or Activity in H4 […] Cells. [Related pubchem assays: 1829 (Project Summary), 1814 (Primary HTS)]; type: functional
# H4 = assay: Luminescence Cell-Based Dose Response HTS to Identify Activators of 5'UTR Stem-Loop Driven Prion Protein mRNA Translation in H4 Neuroglioblastoma Cells. [Related pubchem assays: 1829 (Project Summary), 1814 (Primary HTS)]; type: functional; conditions: Homo sapiens
# [6] = molecular target: T2, DNA repair protein RAD52 homolog (Homo sapiens, UniProt P43351); type: functional, biochemical
# T2 sequence (P43351 whole entry): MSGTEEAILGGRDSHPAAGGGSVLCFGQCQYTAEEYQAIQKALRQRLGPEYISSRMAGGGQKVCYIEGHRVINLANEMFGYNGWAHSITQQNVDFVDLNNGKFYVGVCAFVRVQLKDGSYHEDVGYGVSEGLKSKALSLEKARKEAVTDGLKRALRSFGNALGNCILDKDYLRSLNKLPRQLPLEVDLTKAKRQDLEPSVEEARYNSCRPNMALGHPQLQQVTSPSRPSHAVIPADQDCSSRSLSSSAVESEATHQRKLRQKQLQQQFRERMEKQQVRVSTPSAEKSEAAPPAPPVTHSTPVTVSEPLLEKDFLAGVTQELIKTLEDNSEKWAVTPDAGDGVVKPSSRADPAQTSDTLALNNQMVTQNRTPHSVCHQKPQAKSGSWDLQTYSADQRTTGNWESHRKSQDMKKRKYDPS
# [7] = molecular target: T3, Ubiquitin-conjugating enzyme E2 N (Homo sapiens, UniProt P61088); type: functional;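 also: Dose-response confirmation in a TR-FRET assay detecting UBC13-driven polyubiquitin chain formation, inhibition measured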
# T3 sequence (P61088 whole entry): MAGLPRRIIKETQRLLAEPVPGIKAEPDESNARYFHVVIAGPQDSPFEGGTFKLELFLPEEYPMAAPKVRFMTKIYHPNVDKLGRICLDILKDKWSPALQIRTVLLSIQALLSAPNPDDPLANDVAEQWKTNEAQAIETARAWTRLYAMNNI
# Cytochrome P450 2C9 = Cytochrome P450 2C9 (Homo sapiens, UniProt P11712)
# [8] = molecular target: T4, Replicative DNA helicase DnaB (Mycobacterium tuberculosis, UniProt P9WMR3); assay: DnaB intein splicing inhibitors, dose response, biochemical, cell-free fluorescence (AID 449749); type: functional
# T4 sequence (P9WMR3 whole entry): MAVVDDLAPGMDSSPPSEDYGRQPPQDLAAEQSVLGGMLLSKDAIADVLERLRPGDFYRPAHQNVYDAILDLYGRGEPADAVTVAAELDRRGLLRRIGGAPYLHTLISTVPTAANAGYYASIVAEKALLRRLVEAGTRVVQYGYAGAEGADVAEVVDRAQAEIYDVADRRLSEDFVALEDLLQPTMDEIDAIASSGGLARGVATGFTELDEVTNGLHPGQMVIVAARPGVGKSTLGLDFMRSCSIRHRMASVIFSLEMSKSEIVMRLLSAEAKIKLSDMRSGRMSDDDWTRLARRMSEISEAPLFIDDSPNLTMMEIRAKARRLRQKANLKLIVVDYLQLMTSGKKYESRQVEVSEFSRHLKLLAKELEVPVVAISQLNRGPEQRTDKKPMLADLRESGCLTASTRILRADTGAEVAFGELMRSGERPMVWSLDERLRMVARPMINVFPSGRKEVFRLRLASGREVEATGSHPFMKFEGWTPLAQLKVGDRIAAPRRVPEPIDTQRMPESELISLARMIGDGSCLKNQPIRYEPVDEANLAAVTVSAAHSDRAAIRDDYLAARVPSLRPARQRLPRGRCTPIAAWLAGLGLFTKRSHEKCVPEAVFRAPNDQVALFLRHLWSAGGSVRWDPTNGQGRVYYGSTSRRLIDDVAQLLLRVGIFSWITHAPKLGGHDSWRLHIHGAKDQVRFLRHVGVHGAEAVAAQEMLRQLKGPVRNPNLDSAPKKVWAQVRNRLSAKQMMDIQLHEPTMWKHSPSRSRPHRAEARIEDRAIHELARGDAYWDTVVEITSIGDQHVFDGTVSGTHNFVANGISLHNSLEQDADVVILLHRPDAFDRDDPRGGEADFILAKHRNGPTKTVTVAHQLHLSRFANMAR
# Protein RecA = molecular target: T5, Protein RecA (Mycobacterium tuberculosis, UniProt P9WHJ3); assay: Fluorescence Cell-Free Homogeneous Dose Retest to Identify Inhibitors of RecA-Intein Splicing Activity. [Related pubchem assays (depositor defined):AID2097, AID2223, AID489010, AID492950]; type: functional
# T5 sequence (P9WHJ3 whole entry): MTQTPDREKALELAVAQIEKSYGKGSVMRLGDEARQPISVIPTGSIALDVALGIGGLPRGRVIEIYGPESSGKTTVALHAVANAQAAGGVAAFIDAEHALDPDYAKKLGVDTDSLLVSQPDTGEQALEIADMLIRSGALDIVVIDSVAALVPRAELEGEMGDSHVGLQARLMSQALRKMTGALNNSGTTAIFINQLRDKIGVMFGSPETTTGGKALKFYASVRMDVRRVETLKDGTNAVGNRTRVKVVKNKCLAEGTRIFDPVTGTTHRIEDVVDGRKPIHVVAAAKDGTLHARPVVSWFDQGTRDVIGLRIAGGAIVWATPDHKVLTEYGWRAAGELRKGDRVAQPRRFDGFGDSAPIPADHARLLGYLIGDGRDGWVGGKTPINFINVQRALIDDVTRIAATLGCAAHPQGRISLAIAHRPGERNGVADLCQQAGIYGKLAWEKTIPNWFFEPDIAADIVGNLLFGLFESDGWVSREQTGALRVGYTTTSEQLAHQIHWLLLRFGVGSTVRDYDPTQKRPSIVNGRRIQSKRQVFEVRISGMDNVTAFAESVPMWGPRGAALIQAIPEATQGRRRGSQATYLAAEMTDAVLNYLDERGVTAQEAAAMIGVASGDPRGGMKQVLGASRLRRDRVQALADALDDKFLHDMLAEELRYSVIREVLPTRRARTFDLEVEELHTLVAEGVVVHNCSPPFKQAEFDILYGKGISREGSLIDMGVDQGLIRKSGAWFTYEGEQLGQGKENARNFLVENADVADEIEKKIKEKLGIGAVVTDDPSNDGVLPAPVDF
# [9] = molecular target: T6, Zinc finger protein mex-5 (Caenorhabditis elegans, UniProt Q9XUB2); assay: potency of MEX-5 RNA-binding blockers – biochemical, C. elegans, fluorescence polarization, dose response (AID 1960)
# T6 sequence (Q9XUB2 whole entry): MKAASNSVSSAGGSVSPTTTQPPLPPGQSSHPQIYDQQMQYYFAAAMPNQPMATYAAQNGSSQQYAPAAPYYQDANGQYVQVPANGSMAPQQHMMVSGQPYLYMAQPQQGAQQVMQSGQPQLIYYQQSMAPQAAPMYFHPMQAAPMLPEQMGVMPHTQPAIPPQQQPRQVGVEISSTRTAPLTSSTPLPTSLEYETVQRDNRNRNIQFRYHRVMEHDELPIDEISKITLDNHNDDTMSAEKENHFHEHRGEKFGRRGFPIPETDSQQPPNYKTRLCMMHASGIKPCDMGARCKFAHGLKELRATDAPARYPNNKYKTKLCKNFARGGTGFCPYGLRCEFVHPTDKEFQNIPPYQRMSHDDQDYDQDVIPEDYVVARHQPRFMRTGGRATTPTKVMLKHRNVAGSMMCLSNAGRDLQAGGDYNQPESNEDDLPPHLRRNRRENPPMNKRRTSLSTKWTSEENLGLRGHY
# [10] = Luminescence Cell-Based Dose Retest to Confirm Inhibitors of Cancer Stem Cells. [Related pubchem assays (depositor defined):AID2717, AID2721]; type: functional; conditions: Homo sapiens
# [11] = alpha-synuclein stem-loop luciferase translation blockers – H4 neuroglioma cells, luminescence, confirmation (AID 1988); type: functional, cell-based
# [12] = Luminescence Cell-Based Dose Response HTS to Identify Inhibitors of 5'UTR Stem-Loop Driven Prion Protein mRNA Translation in H4 Neuroglioblastoma Cells. [Related pubchem assays: 1827 (Project Summary), 1813 (Primary HTS)]; type: functional
# [13] = luciferase reporter signal suppression in cells – H4 neuroglioma cells, luminescence, dose response (AID 1990); type: functional, cell-based
# [14] = molecular target: FAD-linked sulfhydryl oxidase ALR (Homo sapiens, UniProt P55789); assay: ALR-catalysed DTT oxidation blockers – biochemical, H2O2 detection, luminescence, cherry-pick, dose response (AID 493248)
# Chain of FAD-linked sulfhydryl oxidase ALR (P55789 whole entry): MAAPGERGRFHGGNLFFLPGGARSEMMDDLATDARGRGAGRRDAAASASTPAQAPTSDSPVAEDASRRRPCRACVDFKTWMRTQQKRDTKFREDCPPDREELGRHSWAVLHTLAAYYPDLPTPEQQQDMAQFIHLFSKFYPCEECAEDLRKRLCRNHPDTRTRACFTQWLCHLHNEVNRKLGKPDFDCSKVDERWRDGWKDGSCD
# Chain of Luciferin 4-monooxygenase (P08659 whole entry, the tested form may be a part): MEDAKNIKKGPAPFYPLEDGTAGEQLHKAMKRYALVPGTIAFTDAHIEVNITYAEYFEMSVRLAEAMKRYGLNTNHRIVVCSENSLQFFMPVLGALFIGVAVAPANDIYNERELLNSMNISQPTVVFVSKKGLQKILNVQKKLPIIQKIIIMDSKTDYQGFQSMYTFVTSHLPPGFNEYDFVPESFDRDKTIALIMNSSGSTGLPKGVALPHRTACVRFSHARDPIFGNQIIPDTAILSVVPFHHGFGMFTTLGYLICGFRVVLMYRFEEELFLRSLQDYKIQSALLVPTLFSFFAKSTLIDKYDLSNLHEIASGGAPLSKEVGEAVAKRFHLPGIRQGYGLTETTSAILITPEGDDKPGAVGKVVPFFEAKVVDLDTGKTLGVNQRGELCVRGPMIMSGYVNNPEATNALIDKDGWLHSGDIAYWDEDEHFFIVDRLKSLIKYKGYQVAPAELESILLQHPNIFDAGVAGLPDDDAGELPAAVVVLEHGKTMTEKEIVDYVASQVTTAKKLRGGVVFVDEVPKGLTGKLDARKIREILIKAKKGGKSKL
# Chain of Cytochrome P450 2C9 (P11712 whole entry): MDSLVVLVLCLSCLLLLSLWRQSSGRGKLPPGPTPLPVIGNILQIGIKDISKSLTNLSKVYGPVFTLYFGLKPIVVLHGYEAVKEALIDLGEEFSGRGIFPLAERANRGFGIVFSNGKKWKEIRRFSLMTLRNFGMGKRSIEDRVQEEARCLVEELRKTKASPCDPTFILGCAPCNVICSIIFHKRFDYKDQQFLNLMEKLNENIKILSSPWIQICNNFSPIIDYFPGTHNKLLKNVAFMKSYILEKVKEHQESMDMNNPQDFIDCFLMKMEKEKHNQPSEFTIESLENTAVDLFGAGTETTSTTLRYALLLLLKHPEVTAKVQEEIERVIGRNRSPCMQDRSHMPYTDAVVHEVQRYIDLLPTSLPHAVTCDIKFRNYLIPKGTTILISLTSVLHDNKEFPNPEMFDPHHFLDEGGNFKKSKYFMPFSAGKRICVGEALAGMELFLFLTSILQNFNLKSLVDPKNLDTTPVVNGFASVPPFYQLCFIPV
compound,measurement,setting,value
Cc1n[nH]c(S/C(C(=O)O)=C2/C(=O)Nc3ccccc32)n1,EC50,[1],15.9 µM (active)
same,EC50,[2],> 300 µM (not active)
same,EC50,[3],> 112 µM (not active)
O=C(NCCc1c[nH]c2ccccc12)C(=O)NCC(c1ccco1)N1CCN(c2ccccc2F)CC1 (stereo not drawn),IC50,H9c2,12.2 µM (active)
Cc1c(OCc2ccccc2)c(=O)ccn1Cc1ccccc1,EC50,[4],13.4 µM (active)
same,EC50,[5],9.62 µM (active)
same,EC50,H4,8.26 µM (active)
Cc1ccc(C(=O)N/C(=C\c2ccc(-c3cccc([N+](=O)[O-])c3)o2)C(=O)NCCCN(C)C)cc1,AC50,[6],24.7 µM (active)
same,IC50,[7],> 20 µM (inactive)
CCN1CCCC(OC(=O)c2cc(-c3ccc(C)cc3)nc3ccccc23)C1 (stereo not drawn),EC50,[4],> 120 µM (not active)
same,AC50,[6],8.59 µM (active)
same,EC50,[5],31.1 µM (active)
same,EC50,H4,> 120 µM (not active)
Cc1ccc(NC(=O)CC2C(=O)NC3CCCCC3N2C(=O)c2ccc(F)cc2)cc1C (stereo not drawn),EC50,[1],> 112 µM (not active)
same,EC50,[3],> 112 µM (not active)
C[C@H](NC(=O)c1[nH]cnc1C(=O)NCC(=O)OCc1ccccc1)c1ccccc1,IC50,H9c2,> 79 µM (inactive)
CCOCc1c(C(=O)NC2=C(C(=O)OCC)C(CC)=Nc3ccccc3N2)oc2ccccc12,IC50,H9c2,> 79 µM (inactive)
c1ccc2c(c1)nc(Nc1ccc3c(c1)OCO3)c1nnnn12,IC50,H9c2,5.99 µM (active)
CCCCOC(=O)CCc1c(C)nc(O)c(C#N)c1C,EC50,[1],> 112 µM (not active)
same,AC50,Cytochrome P450 2C9,0.282 µM (inconclusive)
same,EC50,[3],6.36 µM (active)
Cc1nnc2ccc(-c3ccc(NC(=O)c4ccco4)cc3)nn12,EC50,[4],18.5 µM (active)
same,EC50,[5],14.4 µM (active)
same,EC50,H4,> 120 µM (not active)
Cc1ccc(S(=O)(=O)N(C(=O)c2ccncc2)c2ccc(OC(=O)c3ccncc3)c3ccccc23)c(C)c1,AC50,[8],15.4 µM (active)
same,EC50,Protein RecA,10 µM (active)
CN(C)c1ccc(-n2cc3c(=O)n(C)c(=O)n(C)c3c2)cc1,EC50,[4],45 µM (active)
same,EC50,[5],21 µM (active)
same,EC50,H4,42.3 µM (active)
COc1ccc(NC(=O)c2cccs2)cc1,EC50,[1],17.4 µM (active)
same,EC50,[3],18.6 µM (active)
CCOC(=O)CSc1nnc(CSc2nc(O)c3c4c(sc3n2)CCC4)n1C,IC50,H9c2,> 79 µM (inactive)
N#CCCN(C(=O)COC(=O)CCc1c[nH]c2ccccc12)c1ccc(F)cc1,EC50,[1],> 112 µM (not active)
same,EC50,[3],45.7 µM (active)
O=C(CSc1nc(O)c2ccccc2n1)N1CCN(S(=O)(=O)c2ccccc2)CC1,IC50,H9c2,> 79 µM (inactive)
Cc1cc(Nc2cccc([N+](=O)[O-])c2)c2cccc(C)c2n1,EC50,[1],> 112 µM (not active)
same,EC50,[3],> 112 µM (not active)
O=C(Cc1nnc(O)c2ccccc12)OCC(=O)c1ccccc1,IC50,H9c2,20.5 µM (active)
Cc1ccc(/N=C/c2cc(Br)cc(Cl)c2O)cc1,IC50,H9c2,10.4 µM (active)
same,EC50,[2],> 300 µM (not active)
same,EC50,[9],> 300 µM (not active)
CC(=O)c1sc(N/N=C2\CC3CC2C(C)C3(C)C)nc1C (stereo not drawn),EC50,[4],0.411 µM (active)
same,EC50,[5],12.9 µM (active)
same,EC50,H4,11 µM (active)
O=C(Cn1c2ccccc2c(=O)c2ccccc21)N/N=C/c1ccc(N2CCCC2)c([N+](=O)[O-])c1,AC50,[10],0.483 µM (active)
same,EC50,[1],> 112 µM (not active)
same,EC50,[11],5.08 µM (active)
same,EC50,[12],7.94 µM (active)
same,EC50,[13],5.67 µM (active)
same,EC50,[3],27.4 µM (active)
COc1cc(/C(C)=N/NC(=O)CN2CCN(S(=O)(=O)c3ccc(C)cc3)CC2)ccc1O,AC50,[14],3.76 µM (active)
COc1ccc(/C=N/N=C(/N)N[N+](=O)[O-])c(OC)c1,EC50,[1],> 112 µM (not active)
same,EC50,[3],2.39 µM (active)
